“And” between values parts separate entries of the source, which are not always exact repeats. Equal entries are not always repeated. The source made the active and inactive calls.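 Rule for the calls: active = fitted curve reaching 40% activation at or below the sample's highest valid tested dose; inconclusive = flat fit between 30% and 70%, or poor fit; inactive = the rest, including opposite-direction activity.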
target: Kelch-like ECH-associated protein 1 (Homo sapiens) + Nuclear factor erythroid 2-related factor 2 (Homo sapiens) (UniProt Q14145+Q16236); test: Nrf2 nuclear translocation activators in cells, dose response, orthogonal assay for Keap1-Nrf2 interaction inhibitor project, PathHunter, U2OS cells, dry powder (AID 651833); details: beta-gal luminescence, 3 h
Sequence (Q14145 whole entry, looked up): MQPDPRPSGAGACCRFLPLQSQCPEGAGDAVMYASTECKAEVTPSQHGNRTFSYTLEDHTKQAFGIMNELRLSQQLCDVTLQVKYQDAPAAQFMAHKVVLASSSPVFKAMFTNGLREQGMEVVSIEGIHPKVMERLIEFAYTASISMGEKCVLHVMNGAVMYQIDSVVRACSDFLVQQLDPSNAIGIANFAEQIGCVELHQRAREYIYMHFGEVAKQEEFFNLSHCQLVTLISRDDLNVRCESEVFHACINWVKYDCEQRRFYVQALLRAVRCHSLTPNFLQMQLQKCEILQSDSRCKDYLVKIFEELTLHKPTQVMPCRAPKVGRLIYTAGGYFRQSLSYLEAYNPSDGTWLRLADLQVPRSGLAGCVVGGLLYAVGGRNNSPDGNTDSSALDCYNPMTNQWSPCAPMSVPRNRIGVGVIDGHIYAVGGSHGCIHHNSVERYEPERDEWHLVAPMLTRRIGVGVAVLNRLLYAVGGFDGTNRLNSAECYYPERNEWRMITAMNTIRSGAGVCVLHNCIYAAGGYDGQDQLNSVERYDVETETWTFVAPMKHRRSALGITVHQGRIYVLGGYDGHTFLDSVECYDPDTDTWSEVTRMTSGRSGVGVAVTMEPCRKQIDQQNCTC
Sequence (Q16236 whole entry, looked up): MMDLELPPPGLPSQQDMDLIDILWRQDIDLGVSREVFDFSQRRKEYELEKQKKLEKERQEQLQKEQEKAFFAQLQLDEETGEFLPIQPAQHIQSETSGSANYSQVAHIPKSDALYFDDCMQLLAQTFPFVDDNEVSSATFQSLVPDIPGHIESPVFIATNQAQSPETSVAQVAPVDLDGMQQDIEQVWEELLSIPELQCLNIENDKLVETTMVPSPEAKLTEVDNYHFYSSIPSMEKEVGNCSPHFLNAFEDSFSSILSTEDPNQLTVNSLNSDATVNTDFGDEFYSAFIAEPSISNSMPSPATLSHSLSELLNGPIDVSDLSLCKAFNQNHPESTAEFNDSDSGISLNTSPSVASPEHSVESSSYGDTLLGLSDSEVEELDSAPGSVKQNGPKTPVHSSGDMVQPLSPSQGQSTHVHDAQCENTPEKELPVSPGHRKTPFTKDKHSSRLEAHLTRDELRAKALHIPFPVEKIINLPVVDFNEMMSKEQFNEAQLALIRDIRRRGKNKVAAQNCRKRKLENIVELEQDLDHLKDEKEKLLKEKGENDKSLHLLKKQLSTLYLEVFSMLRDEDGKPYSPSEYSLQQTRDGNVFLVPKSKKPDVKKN

Row | AC40 | SMILES
1 | 4.21 µM | COC(=O)C(C(=O)OC)c1cc(NS(=O)(=O)c2c(C)cc(C)cc2C)c2ccccc2c1O
2 | 1.1 µM | Cc1cc(C)c(S(=O)(=O)Nc2cc(C(C(=O)OC(C)C)C(=O)C(F)(F)F)c(O)c3ccccc23)c(C)c1 (configuration not stated)
3 | 27.2 µM | CC(=O)Nc1cc(NS(=O)(=O)c2c(C)cc(C)cc2C)c2ccccc2c1O
4 | > 38 µM (inactive) | Cc1ccc(S(=O)(=O)NNc2nc(N3CC(O)CC3C(=O)O)nc3ccccc23)cc1 (configuration not stated)
5 | > 38 µM (inactive) | O=C(O)[C@H]1C2C=CC(C2)[C@H]1C(=O)N1CCc2ccccc2C1CN1C(=O)c2ccccc2C1=O (some centres not stated)
6 | > 38 µM (inactive) | O=C(O)C1CCCCC1C(=O)N1CCc2ccccc2C1CN1Cc2ccccc2C1=O (configuration not stated)
7 | 6.97 µM | Cc1ccccc1S(=O)(=O)Nc1cc(C(C(=O)OC(C)C)C(=O)C(F)(F)F)c(O)c2ccccc12 (configuration not stated)
8 | > 38 µM (inactive) | O=C(O)Cc1ccccc1C(=O)N1CCc2ccccc2[C@H]1CN1C(=O)c2ccccc2C1=O
9 | > 38 µM (inactive) | O=C(NC[C@@H]1c2ccccc2CCN1C(=O)[C@@H]1CCCC[C@@H]1C(=O)O)c1ccc(CCl)cc1
10 | > 38 µM (inactive) | O=C(NC[C@@H]1c2ccccc2CCN1C(=O)[C@@H]1CCCC[C@@H]1C(=O)O)c1ccccc1
11 | > 38 µM (inactive) | Cc1cc(C)c(S(=O)(=O)Nc2nc(C(C(=O)OC(C)C)C(=O)C(F)(F)F)nc3ccccc23)c(C)c1 (configuration not stated)
12 | 30 µM | O=C(Oc1cc(CN2C(=O)c3ccccc3C2=O)c2ccccc2[n+]1[O-])c1cccc(Cl)c1
13 | 5.12 µM | Cc1ccc(S(=O)(=O)Nc2cc(C(C(=O)OC(C)C)C(=O)C(F)(F)F)c(O)c3ccccc23)c(C)c1 (configuration not stated)
14 | > 38 µM (inactive) | O=C(NC[C@@H]1c2ccccc2CCN1C(=O)[C@@H]1CCCC[C@@H]1C(=O)O)OCC1c2ccccc2-c2ccccc21
15 | 20 µM | CC(C)OC(=O)C(C(=O)C(F)(F)F)c1cc(NS(=O)(=O)c2ccccc2)c2ccccc2c1O (configuration not stated)
16 | 12.1 µM | Cc1ccc(S(=O)(=O)Nc2cc(C(C(=O)OC(C)C)C(=O)C(F)(F)F)c(O)c3ccccc23)cc1 (configuration not stated)
17 | 18.5 µM | Cc1ccc(S(=O)(=O)NNc2nc(C(C(=O)OC(C)C)C(=O)C(F)(F)F)nc3ccccc23)cc1 (configuration not stated)
18 | > 38 µM (inactive) | Cc1ccc(S(=O)(=O)NC2=CC(=N[C@@H](C)C(=O)OC(C)(C)C)C(=O)c3ccccc32)c(C)c1

same assay, conditions: beta-gal luminescence, 3 h, at 10 µM (top of the series)

Row | activation | SMILES
19 | -2.75% (inactive) | O=C1c2ccccc2C(=O)N1CC1c2ccccc2CCN1C(=O)Cc1ccccc1 (configuration not stated)

same assay, conditions: beta-gal luminescence, 3 h, at 38 µM (top of the series)

Row | activation | SMILES
20 | 3.41% (inactive) | O=C(O)CCCC(=O)N1CCc2ccccc2C1CN1C(=O)c2ccccc2C1=O (configuration not stated)
21 | 8.62% (inactive) | CCOC(=O)Cc1nc(NS(=O)(=O)c2c(C)cc(C)cc2C)c2ccccc2n1
22 | 3.97% (inactive) | O=S(=O)(Nc1nc(NCC2CCCCC2)nc2ccccc12)c1ccccc1
23 | 3% (inactive) | Cc1ccc(S(=O)(=O)NNc2nc(NCC(N)=O)nc3ccccc23)cc1
24 | 1.4% (inactive) | CCOC(=O)C(C(=O)OCC)c1cc(CNS(=O)(=O)c2ccc(C)cc2C)c2ccccc2n1
25 | 8.88% (inactive) | NC(=O)c1ccccc1C(=O)NC[C@@H]1c2ccccc2CCN1C(=O)[C@@H]1CCCC[C@@H]1C(=O)O
26 | 4.54% (inactive) | NC(=O)[C@H]1CCCC[C@H]1C(=O)N1CCc2ccccc2[C@H]1CN1C(=O)c2ccccc2C1=O
27 | -4.29% (inactive) | C[C@H](NC(=O)C1CCCC[C@H]1C(=O)O)c1ccccc1 (mixture of isomers)
28 | -2.15% (inactive) | COC(=O)[C@@H]1CCCC[C@@H]1C(=O)N1CCc2ccccc2[C@@H]1CN1C(=O)c2ccccc2C1=O
29 | -2.72% (inactive) | COC(=O)[C@@H]1CCCC[C@@H]1C(=O)N1CCc2ccccc2[C@H]1CN1C(=O)c2ccccc2C1=O
30 | 5.09% (inactive) | O=C(NCCc1ccccc1)c1ccccc1C(=O)NC[C@@H]1c2ccccc2CCN1C(=O)C1CCCCC1C(=O)O (some centres not stated)
31 | -1.78% (inactive) | O=C(O)C1CCCCC1C(=O)N1CCCCC1CN1C(=O)c2ccccc2C1=O (configuration not stated)
32 | 4.38% (inactive) | O=C(O)C1CCCCC1C(=O)N1CCc2ccccc2C1CN1C(=O)[C@H]2CCCC[C@H]2C1=O (some centres not stated)
33 | 5.4% (inactive) | O=C(O)[C@H]1CCCC[C@H]1C(=O)N1CCc2ccccc2[C@H]1CNc1nc(Cl)nc2ccccc12
34 | 13% (inactive) | O=C(O)/C=C\C(=O)N1CCc2ccccc2C1CN1C(=O)c2ccccc2C1=O (configuration not stated)
35 | 1.28% (inactive) | CCOC(=O)C(C(=O)OCC)c1nc(NS(=O)(=O)c2c(C)cc(C)cc2C)c2ccccc2n1
36 | 0.036% (inactive) | O=C(O)C1CCCCC1C(=O)NCC1c2ccccc2CCN1C(=O)Cc1ccccc1 (configuration not stated)
37 | -1.8% (inactive) | C[C@@H](NC(=O)C1CCCC[C@H]1C(=O)O)c1ccccc1 (mixture of isomers)
38 | 5.34% (inactive) | Cc1cc(C)c(S(=O)(=O)Nc2cc(C(C(=O)OCc3ccccc3)C(=O)OCc3ccccc3)c(O)c3ccccc23)c(C)c1
39 | -1.98% (inactive) | O=C(O)[C@H]1CCCC[C@H]1C(=O)NC(CN1C(=O)c2ccccc2C1=O)c1ccccc1 (some centres not stated)

Row | activation | SMILES
40 | -2.53% (inactive) | O=C(O)C1CCCCC1C(=O)N1CCc2ccccc2C1c1ccccc1 (configuration not stated)
41 | 6.37% (inactive) | O=C(O)[C@H]1CCCC[C@H]1C(=O)N1CCc2ccccc2[C@H]1CNS(=O)(=O)c1ccc([N+](=O)[O-])cc1
42 | -2.47% (inactive) | O=C(O)C1CCCCC1C(=O)N1CCc2ccccc2[C@H]1C(=O)NC12CC3CC(CC(C3)C1)C2 (some centres not stated)
43 | 5.19% (inactive) | COc1ccc(CCN=C2C=C(NS(=O)(=O)c3c(C)cc(C)cc3C)c3ccccc3C2=O)cc1
44 | -0.067% (inactive) | O=C1c2ccccc2C(=O)N1CC1=NCCc2ccccc21
45 | -0.662% (inactive) | O=C(O)[C@H]1CCCC[C@H]1C(=O)N1CCc2ccccc2C1 (racemic)
46 | 3.36% (inactive) | Cc1cc(C)c(S(=O)(=O)Nc2nc(NCCO)nc3ccccc23)c(C)c1
47 | 1.45% (inactive) | O=C1c2ccccc2C(=O)N1C[C@@H]1c2ccccc2CCN1C(=O)OCc1ccccc1
48 | 6.05% (inactive) and 8.58% (inactive) | Cc1ccc(S(=O)(=O)NC(=O)[C@@H]2c3ccccc3CCN2C(=O)[C@@H]2CCCC[C@@H]2C(=O)O)cc1
49 | 2.73% (inactive) | O=C(O)CC(=O)N1CCc2ccccc2C1CN1C(=O)c2ccccc2C1=O (configuration not stated)
50 | 11% (inactive) and -0.217% (inactive) | O=C(O)[C@H]1CCCC[C@H]1C(=O)N1CCC2=C(CCCC2)C1CN1C(=O)c2ccccc2C1=O (some centres not stated)
51 | -2.67% (inactive) | O=C1c2ccccc2C(=O)N1C[C@H]1NCCc2ccccc21
52 | 7.86% (inactive) | O=C(O)[C@H]1CCCC[C@H]1C(=O)N1CCc2ccccc2[C@H]1CNS(=O)(=O)c1ccccc1
53 | 13.7% (inactive) | O=C(O)C1CCCCC1C(=O)N1CCc2ccccc2C1CN1C(=O)c2ccccc2S1(=O)=O (configuration not stated)
54 | 0.849% (inactive) | O=C(O)C1CCCCC1C(=O)N1CCc2ccccc2[C@H]1C(=O)NCCc1ccccc1 (some centres not stated)
55 | 2.86% (inactive) | O=C(NC[C@@H]1c2ccccc2CCN1C(=O)[C@@H]1CCCC[C@@H]1C(=O)O)c1ccc(CN2CCOCC2)cc1
56 | 8.47% (inactive) | O=C(O)C1CCCCC1C(=O)N1CCc2ccccc2C1CN1C(=O)Cc2ccccc2C1=O (configuration not stated)
57 | -2.1% (inactive) | COC(=O)[C@H]1CCCC[C@H]1C(=O)N1CCc2ccccc2[C@H]1CN1C(=O)c2ccccc2C1=O
58 | 9.41% (inactive) | CCOC(=O)C(C(=O)OCC)c1cc(CN2C(=O)c3ccccc3C2=O)c2ccccc2n1
59 | 4.54% (inactive) | O=C(O)c1ccccc1C(=O)N1CCc2ccccc2C1CN1C(=O)c2ccccc2C1=O (configuration not stated)

Row | activation | SMILES
60 | 5.41% (inactive) | O=C(O)[C@@H]1CCCN1C(=O)N1CCc2ccccc2[C@H]1CN1C(=O)c2ccccc2C1=O
61 | 1.36% (inactive) | O=C(O)CCC(=O)N1CCc2ccccc2C1CN1C(=O)c2ccccc2C1=O (configuration not stated)
62 | 4.66% (inactive) | Cc1ccc(S(=O)(=O)NC[C@@H]2c3ccccc3CCN2C(=O)[C@@H]2CCCC[C@@H]2C(=O)O)c(C)c1
63 | 7.06% (inactive) | CC(C)CNc1nc(NS(=O)(=O)c2ccccc2)c2ccccc2n1
64 | 4.09% (inactive) | O=C(NCCO)c1ccccc1C(=O)NC[C@@H]1c2ccccc2CCN1C(=O)C1CCCCC1C(=O)O (some centres not stated)
65 | 0.733% (inactive) | O=C1c2ccccc2C(=O)N1C[C@@H]1c2ccccc2CCN1C(=O)C1CCCCC1
66 | 0.812% (inactive) and -0.193% (inactive) | O=C(O)[C@H]1CCCC[C@H]1C(=O)N1CCc2ccccc2C1CCN1C(=O)c2ccccc2C1=O (some centres not stated)
67 | 3.66% (inactive) | COC(=O)CNc1nc(NS(=O)(=O)c2c(C)cc(C)cc2C)c2ccccc2n1
68 | -2.72% (inactive) | O=C(O)C1CCCCC1C(=O)Nc1ccccc1CN1C(=O)c2ccccc2C1=O (configuration not stated)
69 | -2.36% (inactive) and -1.69% (inactive) | COc1ccccc1CCNC(=O)[C@@H]1c2ccccc2CCN1C(=O)C1CCCCC1C(=O)O (some centres not stated)
70 | 6.96% (inactive) | C=CC(=O)NC[C@@H]1c2ccccc2CCN1C(=O)[C@@H]1CCCC[C@@H]1C(=O)O
71 | 1.27% (inactive) | COC(=O)C1CCCCC1C(=O)N1CCc2ccccc2C1CN1C(=O)c2ccccc2C1=O (configuration not stated)
72 | 2.9% (inactive) | Cc1cc(C)c(S(=O)(=O)Nc2ncnc3ccccc23)c(C)c1
73 | 2.02% (inactive) | Cc1cc(C)c(S(=O)(=O)Nc2nc(N(C)C)nc3ccccc23)c(C)c1
74 | 2.2% (inactive) | O=C(NC[C@@H]1c2ccccc2CCN1C(=O)[C@@H]1CCCC[C@@H]1C(=O)O)c1ccccc1CO
75 | 6.26% (inactive) | O=C(Cc1ccccc1)NC[C@@H]1c2ccccc2CCN1C(=O)[C@@H]1CCCC[C@@H]1C(=O)O
76 | 4.62% (inactive) | O=C(NCCCN1CCOCC1)c1ccccc1C(=O)NC[C@@H]1c2ccccc2CCN1C(=O)C1CCCCC1C(=O)O (some centres not stated)
77 | 0.179% (inactive) | O=C(O)c1ccccc1C(=O)NC[C@@H]1c2ccccc2CCN1C(=O)[C@@H]1CCCC[C@@H]1C(=O)O

Reference: PubChem BioAssay AID651833 (Broad Institute, 2012)
